This note sets out measurements from ChEMBL document CHEMBL1129616, “Synthesis and evaluation of novel thymidine analogs as antitumor and antiviral agents” (J Med Chem, 1996).

Structures are written as SMILES.

This assay relates to SV-28. As to the kind of experiment: Compound was tested for its effect on (target DNA or RNA) cell plating efficiency at 25 uM after a 24 hr exposure (the SV-28 cell has a plating efficiency between 50 and 60%). The assay is classed as functional, Cricetulus griseus.

`CCCCCCCCCCCCCCCC(=O)CC[N+](C)(C)CCOCn1cc(C)c(=O)[nH]c1=O.[I-]` registered a Cell plating efficiency of 47%.
